Experimental data reported in PubChem BioAssay (NCI).
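Following 48 hours of exposure in 96-well plates, responses at five concentrations were used to interpolate endpoints linearly. At the TGI there is no net growth.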

Key:
Experiment in all cases: inhibition of tumour cell growth, NCI panel, 48 h
[1] = test system: CCRF-CEM leukemia
[2] = test system: SNB-75 CNS
[3] = test system: MALME-3M melanoma
[4] = test system: MCF7 breast
[5] = test system: TK-10 renal
[6] = test system: OVCAR-5 ovarian
[7] = test system: NCI-H522 lung
[8] = test system: K-562 leukemia
[9] = test system: A498 renal
[10] = test system: A549 NSCLC
[11] = test system: NCI-H226 lung
[12] = test system: OVCAR-8 ovarian
[13] = test system: SF-295 CNS

| Structure (SMILES) | TGI [1] | TGI [2] | TGI [3] | TGI [4] | TGI [5] | TGI [6] | TGI [7] | TGI [8] | TGI [9] | TGI [10] | TGI [11] | TGI [12] | TGI [13] |
| --- | --- | --- | --- | --- | --- | --- | --- | --- | --- | --- | --- | --- | --- |
| O=[N+]([O-])/C(Cl)=C(\Nc1ccccc1)C(Cl)=C(Cl)Cl | 42.9 µM | 20.5 µM | 45.9 µM | 60.4 µM | > 100 µM | > 100 µM | > 100 µM | 68.6 µM | 65.4 µM | 95 µM | 78 µM | 53.9 µM | 94 µM |
| CC1=CC2(O)OC3(CC2=C(C)C)C(C)CCC13 (stereo unspecified) | > 100 µM | > 100 µM | > 100 µM | > 100 µM | > 100 µM | > 100 µM | > 100 µM | > 100 µM | > 100 µM | > 100 µM | > 100 µM | > 100 µM | > 100 µM |
| COc1ccc(OC)c(NC(=O)C(=O)Nn2c(=S)[nH]c3ccccc3c2=O)c1 | > 100 µM | > 100 µM | > 100 µM | > 100 µM | > 100 µM | > 100 µM | > 100 µM | > 100 µM | > 100 µM | > 100 µM | > 100 µM | > 100 µM | > 100 µM |
| O=c1oc2ccccc2cc1-c1nnc(-c2ccccc2)s1 | > 100 µM | 45.6 µM | > 100 µM | > 100 µM | > 53.8 µM | > 100 µM | > 100 µM | > 100 µM | 43.6 µM | > 100 µM | > 100 µM | > 69.4 µM | > 71 µM |
| COc1ccc2nc3cc([N+](=O)[O-])ccc3c(NNc3ccc(Cl)cc3)c2c1 | 80.1 µM | > 100 µM | > 100 µM | > 100 µM | 5.16 µM | > 100 µM | 83.7 µM | > 68.3 µM | 0.221 µM | > 85 µM | 26 µM | 65.1 µM | > 100 µM |
| CCC(CC)C(=O)OC[n+]1cccc(-c2c(COC(=O)NC(C)C)c(COC(=O)NC(C)C)c3n2CCC3)c1 | > 100 µM | > 100 µM | > 100 µM | > 100 µM | > 100 µM | > 100 µM | > 100 µM | > 100 µM | > 100 µM | > 100 µM | > 100 µM | > 100 µM | > 100 µM |
| Cn1cc2c(=O)n3ncn(-c4ccc(Br)cc4)c3nc2n1 | > 100 µM | > 100 µM | > 100 µM | > 100 µM | > 100 µM | > 100 µM | > 100 µM | > 100 µM | > 100 µM | > 100 µM | > 100 µM | > 100 µM | > 100 µM |
